According to patent publication US20210236449A1, “USE OF CHLOROGENIC ACID IN PREPARING DRUG FOR PREVENTING OR BLOCKING BRAIN AND/OR BONE METASTASES OF LUNG CANCER” (SICHUAN JIUZHANG BIOLOGICAL SCIENCE AND TECHNOLOGY CO., LTD, priority 2018, published 2021):
Marks after values point to notes of the source that are not given here.

System: EGFP-LA795 cells
Test: Inhibitory effect of chlorogenic acid on metastasis in LA795 lung cancer mice
Assay type: in vivo, T739 mice
Details: for Abdominal metastasis / Axial bone metastasis / Bloody ascites / Brain metastasis / Limb bone metastasis / Local lymph node metastasis: once a day for 20 days, mice with finding/n = 10
Source text: (1) Animals: T739 mice, half male and half female, weighing 18-22 g, are provided by the Experimental Animal Center of Sichuan University.
(2) Lung cancer cell lines: LA795, provided by Wuhan Procell Life Technology Co., Ltd.; Fetal bovine serum, provided by Hangzhou Sijiqing Bioengineering Materials Co., Ltd.; plasmid EGFP-C1, provided by Clontech; Liposome transfection reagent Lipofectamin 2000, provided by Invitrogen.
LA795 cells were inoculated in a 6-well culture plate at 1×10^7 cells/mL, using DMEM complete medium containing 10% fetal bovine serum, and cultured in a 37° C., 5% CO2 incubator. When the cells were about 70% fused, liposome transfection reagent lipid Lipofectamin2000 was used and LA795 cells were transfected into plasmid EGFP-C1. 48 h after transfection, cells were passed and screened by G 418, then anti-G418 fluorescent positive clones appeared after about 4 weeks. Clones were observed under fluorescent inverted microscope, and one resistant fluorescent cell clone was randomly picked and transferred to 96-well plate for culture. After stepwise expansion, cells were routinely cultured and passaged. 400 μg/ml G418 was used to maintain screening and obtain expanded EGFP-LA795 cells. When EGFP-LA795 cells are 80%-90% fused in the logarithmic growth phase, they are digested with 0.25% trypsin, then centrifuged, and the cells are resuspended in DMEM to prepare a cell suspension for seeding (cell concentration 1×10^7 cells/mL). EGFP-LA795 cells grown on the wall were trypsinized to prepare a single cell suspension, and then diluted appropriately. The cell suspension was mixed with 0.4% trypan blue solution and counted under the microscope. The survival rate of EGFP-LA795 cells was >90%, and the positive clones were picked out under an inverted fluorescence microscope, followed by culture and amplification, to obtain LA795 cells with green fluorescence.
0.2 ml of EGFP-LA795 cell suspension at 1.0×10^7 cells/ml was inoculated into the armpit of mice, and then the mice were randomly divided into groups, 10 mice for each group, including the high-dose chlorogenic acid group, the middle-dose chlorogenic acid group, and the low-dose chlorogenic acid group and the model control group. Chlorogenic acid was administered by intraperitoneal injection, 40 mg/kg for the high-dose group, 20 mg/kg for the middle-dose group, 10 mg/kg for the low-dose group, and the administration volume was 1.0 ml; the model control group was given the same volume of normal saline by intraperitoneal injection, once a day for 20 days. In vivo imaging observations were performed on days 0, 10, and 20, respectively. After the test, the mice were sacrificed by cervical dislocation, and peripheral lymph nodes, axial bones, and long bones of the limbs were taken to observe and count metastases.
10% chloral hydrate was intraperitoneally injected at 4 ml/kg for anesthetization, and mice were put on the black rubber pad prepared for the in vivo imager. The irradiation conditions were GFP, the emission wavelength was 520 nm, the excitation wavelength was 480 nm, and the exposure time was 5 ms. The volume changes and metastasis of the tumor were observed.
Surrounding lymph nodes were taken out, and 8 μm conventional and frozen sections were obtained, and routinely stained with hematoxylin-eosin (HE) every other one, to observe the tumor metastasis under fluorescence microscope and light microscope.
Axial bones (such as ribs, spine, ilium, scapula) and long bones of the limbs of mice were chosen, cut into 0.5 cm×0.3 cm×0.3 cm bone pieces, and fixed with frozen 4% paraformaldehyde solution at 5° C. for 12 h-24 h; the bones were rinsed with phosphate buffer and decalcified with EDTA until the bone slices were completely decalcified. […]

[1] = high dose group, 40 mg/kg intraperitoneal injection
[2] = low dose group, 10 mg/kg intraperitoneal injection
[3] = medium dose group, 20 mg/kg intraperitoneal injection

O=C(/C=C/c1ccc(O)c(O)c1)O[C@@H]1C[C@](O)(C(=O)O)C[C@@H](O)[C@H]1O [Chlorogenic acid, chlorogenic acid]
metastasis of LA795 lung cancer cells in mice (20 mg/kg medium-dose group): No metastasis was found
Abdominal metastasis [1]: 1/10*
Axial bone metastasis [1]: 0/10*
Bloody ascites [1]: 0/10*
Brain metastasis [1]: 0/10*
Limb bone metastasis [1]: 0/10*
Local lymph node metastasis [1]: 1/10*
Abdominal metastasis [2]: 2/10*
Axial bone metastasis [2]: 0/10*
Bloody ascites [2]: 0/10*
Brain metastasis [2]: 0/10*
Limb bone metastasis [2]: 0/10*
Local lymph node metastasis [2]: 1/10*
number of metastatic foci in mice (low, medium and high dose groups versus model control group): significantly reduced
Abdominal metastasis [3]: 0/10*
Axial bone metastasis [3]: 0/10*
Bloody ascites [3]: 0/10*
Brain metastasis [3]: 0/10*
Limb bone metastasis [3]: 0/10*
Local lymph node metastasis [3]: 0/10*
